The test concerns the target Signal transducer and activator of transcription 3 (Homo sapiens, UniProt P40763). The experiment in a line: Inhibition of IL-6-Induced STAT3 activation (unknown origin) expressed in human HepG2 cells expressing pSTAT3-luciferase pre-incubated for 1 hr before IL-6 stimulation for 6 hrs by luciferase reporter gene assay.

Chain of Signal transducer and activator of transcription 3 (P40763 whole entry): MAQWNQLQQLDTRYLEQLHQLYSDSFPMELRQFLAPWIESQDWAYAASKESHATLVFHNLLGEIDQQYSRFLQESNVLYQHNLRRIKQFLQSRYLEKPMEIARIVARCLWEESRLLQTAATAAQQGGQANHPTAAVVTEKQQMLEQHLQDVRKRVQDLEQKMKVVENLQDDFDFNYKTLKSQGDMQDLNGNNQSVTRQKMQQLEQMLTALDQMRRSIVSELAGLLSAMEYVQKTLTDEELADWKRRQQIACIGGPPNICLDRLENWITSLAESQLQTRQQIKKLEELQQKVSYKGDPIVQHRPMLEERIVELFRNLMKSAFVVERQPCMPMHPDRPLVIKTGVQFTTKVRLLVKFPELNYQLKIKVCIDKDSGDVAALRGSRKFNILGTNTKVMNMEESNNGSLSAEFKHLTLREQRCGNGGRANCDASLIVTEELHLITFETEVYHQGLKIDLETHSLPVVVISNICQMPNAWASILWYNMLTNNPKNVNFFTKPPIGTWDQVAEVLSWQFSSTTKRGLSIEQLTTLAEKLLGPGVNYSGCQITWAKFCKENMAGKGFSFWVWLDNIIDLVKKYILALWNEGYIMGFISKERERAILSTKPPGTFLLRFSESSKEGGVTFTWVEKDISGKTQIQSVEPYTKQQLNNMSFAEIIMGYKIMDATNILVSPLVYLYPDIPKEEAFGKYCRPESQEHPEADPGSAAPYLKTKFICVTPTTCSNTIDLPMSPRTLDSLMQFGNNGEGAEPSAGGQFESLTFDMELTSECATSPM

For `COC(=O)C1=CO[C@@H](O[C@@H]2O[C@H](CO)[C@@H](O)[C@H](O)[C@H]2O)[C@@H]2[C@H](C)O[C@H](O[C@H]3[C@H](O[C@@H]4OC=C(C(=O)OC)[C@H]5C[C@@H](OC)O[C@@H](C)[C@@H]45)O[C@H](CO)[C@@H](O)[C@@H]3O)C[C@H]12`, the concentration for half-maximal inhibition (IC50) – broadly, the concentration at which inhibition is half-maximal – is 19.4 µM.
Then `CCO[C@H]1C[C@@H]2C(C(=O)OC)=CO[C@@H](O[C@@H]3O[C@H](CO[C@H]4C[C@@H]5C(C(=O)OC)=CO[C@@H](O[C@@H]6O[C@H](CO)[C@@H](O)[C@H](O)[C@H]6O)[C@@H]5[C@H](C)O4)[C@@H](O)[C@H](O)[C@H]3O)[C@@H]2[C@H](C)O1`, with > 100 µM.
In turn, `COC(=O)C1=CO[C@@H](O[C@@H]2O[C@H](CO)[C@@H](O)[C@H](O)[C@H]2O[C@@H]2C[C@@H]3C(C(=O)OC)=CO[C@@H](O[C@@H]4O[C@H](CO)[C@@H](O)[C@H](O)[C@H]4O)[C@@H]3[C@H](C)O2)[C@@H]2[C@@H](C)[C@@H](O)C[C@H]12` came in with an IC50 of 40.5 µM.
`COC(=O)C1=CO[C@@H](O[C@@H]2O[C@H](CO[C@@H]3C[C@@H]4C(C(=O)OC)=CO[C@@H](O[C@@H]5O[C@H](CO)[C@@H](O)[C@H](O)[C@H]5O)[C@@H]4[C@H](C)O3)[C@@H](O)[C@H](O)[C@H]2O)[C@@H]2[C@H](C)O[C@H](OC)C[C@H]12` returned an IC50 of 27.6 µM.
The figure for `COC(=O)C1=CO[C@@H](O[C@@H]2O[C@H](CO[C@H]3C[C@@H]4C(C(=O)OC)=CO[C@@H](O[C@@H]5O[C@H](CO)[C@@H](O)[C@H](O)[C@H]5O)[C@@H]4[C@H](C)O3)[C@@H](O)[C@H](O)[C@H]2O)[C@@H]2[C@H](C)O[C@@H](OC)C[C@H]12` is > 100 µM.
The figure for `COC(=O)C1=CO[C@@H](O[C@@H]2O[C@H](CO)[C@@H](O)[C@H](O)[C@H]2O)[C@@H]2[C@H](C)O[C@@H](OC)C[C@H]12` is 24.8 µM.
The figure for `COC(=O)C1=CO[C@@H](O[C@@H]2O[C@H](CO)[C@@H](O)[C@H](O)[C@H]2O)[C@@H]2[C@H](C)O[C@H](OC)C[C@H]12` is 32.5 µM.
`COC(=O)C1=CO[C@@H](O[C@@H]2O[C@H](CO)[C@@H](O)[C@H](O)[C@H]2O)[C@@H]2[C@@H](C)[C@@H](O[C@H]3C[C@@H]4C(C(=O)OC)=CO[C@@H](O[C@@H]5O[C@H](CO)[C@@H](O)[C@H](O)[C@H]5O)[C@@H]4[C@@H](C)O3)C[C@H]12` showed an IC50 of 71.9 µM.
On to `COC(=O)C1=CO[C@@H](O[C@@H]2O[C@H](CO)[C@@H](O[C@H]3C[C@@H]4C(C(=O)OC)=CO[C@@H](O[C@@H]5O[C@H](C)[C@@H](O)[C@H](O)[C@H]5O)[C@@H]4[C@H](C)O3)[C@H](O)[C@H]2O)[C@@H]2[C@@H](C)[C@@H](O)C[C@H]12`, for which the IC50 was determined as 52.6 µM.
The figure for `COC(=O)C1=CO[C@@H](O[C@@H]2O[C@H](CO[C@@H]3C[C@@H]4C(C(=O)OC)=CO[C@@H](O[C@@H]5O[C@H](CO)[C@@H](O)[C@H](O)[C@H]5O)[C@@H]4[C@H](C)O3)[C@@H](O)[C@H](O)[C@H]2O)[C@@H]2[C@@H](C)[C@@H](O)C[C@H]12` is 12.2 µM.
The figure for `COC(=O)C1=CO[C@@H](O[C@@H]2O[C@H](CO[C@@H]3C[C@@H]4C(C(=O)OC)=CO[C@@H](O[C@@H]5O[C@H](CO)[C@@H](O)[C@H](O)[C@H]5O)[C@@H]4[C@H](C)O3)[C@@H](O)[C@H](O)[C@H]2O)[C@@H]2[C@H](C)O[C@@H](OC)C[C@H]12` is 43 µM.
Then `COC(=O)C1=CO[C@@H](O[C@@H]2O[C@H](CO)[C@@H](O)[C@H](O)[C@H]2O)[C@@H]2[C@H](C)O[C@H](O[C@H]3[C@H](O[C@@H]4OC=C(C(=O)OC)[C@H]5C[C@H](OC)O[C@@H](C)[C@@H]45)O[C@H](CO)[C@@H](O)[C@@H]3O)C[C@H]12`, with 21.9 µM; and `COC(=O)C1=CO[C@@H](O[C@@H]2O[C@H](C)[C@@H](O)[C@H](O)[C@H]2O)[C@@H]2[C@H](C)O[C@@H](O[C@@H]3[C@@H](O)[C@H](O[C@@H]4OC=C(C(=O)OC)[C@H]5C[C@@H](OC)O[C@@H](C)[C@@H]45)O[C@H](CO)[C@H]3O)C[C@H]12`, with 29.7 µM.
`COC(=O)C1=CO[C@@H](O[C@@H]2O[C@H](C)[C@@H](O)[C@H](O)[C@H]2O)[C@@H]2[C@H](C)O[C@@H](O[C@@H]3[C@@H](O)[C@H](O[C@@H]4OC=C(C(=O)OC)[C@H]5C[C@H](OC)O[C@@H](C)[C@@H]45)O[C@H](CO)[C@H]3O)C[C@H]12` displayed an IC50 of 11.9 µM.
Take `COC(=O)C1=CO[C@@H](O[C@@H]2O[C@H](CO)[C@@H](O)[C@H](O)[C@H]2O)[C@@H]2[C@H](C)O[C@@H](O[C@H]3[C@H](O[C@@H]4OC=C(C(=O)OC)[C@H]5C[C@H](OC)O[C@@H](C)[C@@H]45)O[C@H](CO)[C@@H](O)[C@@H]3O)C[C@H]12`: the IC50 is > 100 µM.
The figure for `CCO[C@H]1C[C@@H]2C(C(=O)OC)=CO[C@@H](O[C@@H]3O[C@H](CO)[C@@H](O)[C@H](O)[C@H]3O)[C@@H]2[C@H](C)O1` is 67 µM; for `CCO[C@@H]1C[C@@H]2C(C(=O)OC)=CO[C@@H](O[C@@H]3O[C@H](CO[C@H]4C[C@@H]5C(C(=O)OC)=CO[C@@H](O[C@@H]6O[C@H](CO)[C@@H](O)[C@H](O)[C@H]6O)[C@@H]5[C@H](C)O4)[C@@H](O)[C@H](O)[C@H]3O)[C@@H]2[C@H](C)O1` it is > 100 µM; for `COC(=O)C1=CO[C@@H](O[C@@H]2O[C@H](C)[C@@H](O)[C@H](O)[C@H]2O)[C@@H]2[C@H](C)O[C@@H](O[C@H]3[C@H](O)[C@@H](O)[C@H](O[C@@H]4OC=C(C(=O)OC)[C@H]5C[C@H](OC)O[C@@H](C)[C@@H]45)O[C@@H]3CO)C[C@H]12` it is 79.1 µM.
Then `CCO[C@@H]1C[C@@H]2C(C(=O)OC)=CO[C@@H](O[C@@H]3O[C@H](CO)[C@@H](O)[C@H](O)[C@H]3O)[C@@H]2[C@H](C)O1`, with > 100 µM; and `COC(=O)C1=CO[C@@H](O[C@@H]2O[C@H](CO)[C@@H](O)[C@H](O)[C@H]2O)[C@@H]2[C@H](C)O[C@@H](OC[C@H]3O[C@@H](O[C@@H]4OC=C(C(=O)OC)[C@H]5C[C@@H](OC)O[C@@H](C)[C@@H]45)[C@H](O)[C@@H](O)[C@@H]3O)C[C@H]12`, with 47 µM.
Then `COC(=O)C1=CO[C@@H](O[C@@H]2O[C@H](CO)[C@@H](O)[C@H](O)[C@H]2O)[C@@H]2[C@H](C)[C@@H](O)C[C@H]12` [7-Epi-Loganin], with 22.9 µM.
In the case of `COC(=O)C1=CO[C@@H](O[C@@H]2O[C@H](CO)[C@@H](O)[C@H](O)[C@H]2O)[C@@H]2[C@H](C)O[C@H](O)C[C@H]12` [(7Alpha-Hydroxy)-Morroniside], the IC50 worked out at 7 µM.
The figure for `COC(=O)C1=CO[C@@H](O[C@@H]2O[C@H](CO)[C@@H](O)[C@H](O)[C@H]2O)[C@@H]2[C@H](C)O[C@@H](O)C[C@H]12` [CHEBI:80852] is 6.9 µM; for `C=C[C@H]1[C@H](O[C@@H]2O[C@H](CO)[C@@H](O)[C@H](O)[C@H]2O)OC=C2C(=O)OCC[C@H]21` [CHEBI:80907] it is 89.5 µM.
Then `COC(=O)C1=CO[C@@H](O[C@@H]2O[C@H](CO)[C@@H](O)[C@H](O)[C@H]2O)[C@@H]2[C@@H](C)[C@@H](O)C[C@H]12` [Loganin], with 14 µM; and `O=c1c(-c2ccc(O)cc2)coc2cc(O)cc(O)c12` [Prunetol], with 24.8 µM.

These data come from BindingDB's records for doi:10.1021/acs.jnatprod.6b01127 (Beijing University of Chinese Medicine, 2017).
